Test results from patent publication US12252492B2, “Substituted fused pyrrolo-diazepinones and uses thereof” (Northwestern University, priority 2018, dated 2025).

Test system: A549/ATCC
Experiment: NCI60 one-dose screen, A549
Type: cell-based, human
Conditions: A549 cells; single concentration of 10 μM; NCI60 panel
Procedure: Anti-cancer activity screening of all compounds was performed by the NCI Developmental Therapeutics Program (DTP) through their NCI60 screening initiative. Assay details can be found at the website dtp.cancer.gov/discovery_development/nci-60/methodology.htm. Information from this website is reproduced here for convenience.
As of early 2007 all compounds submitted to the NCI 60 Cell screen are tested initially at a single high dose (10^-5 M) in the full NCI 60 cell panel. Only compounds which satisfy pre-determined threshold inhibition criteria in a minimum number of cell lines will progress to the full 5-dose assay. The threshold inhibition criteria for progression to the 5-dose screen was selected to efficiently capture compounds with anti-proliferative activity based on careful analysis of historical DTP screening data. The threshold criteria may be updated as additional data becomes available.
The One-dose data will be reported as a mean graph of the percent growth of treated cells and will be similar in appearance to mean graphs from the 5-dose assay. The number reported for the One-dose assay is growth relative to the no-drug control, and relative to the time zero number of cells. This allows detection of both growth inhibition (values between 0 and 100) and lethality (values less than 0). This is the same as for the 5-dose assay, described below. For example, a value of 100 means no growth inhibition. A value of 40 would mean 60% growth inhibition. A value of 0 means no net growth over the course of the experiment. A value of −40 would mean 40% lethality. A value of −100 means all cells are dead. Information from the One-dose mean graph is available for COMPARE analysis.
The human tumor cell lines of the cancer screening panel are grown in RPMI 1640 medium containing 5% fetal bovine serum and 2 mM L-glutamine. For a typical screening experiment, cells are inoculated into 96 well microtiter plates in 100 μL at plating densities ranging from 5,000 to 40,000 cells/well depending on the doubling time of individual cell lines. After cell inoculation, the microtiter plates are incubated at 37° C., 5% CO2, 95% air and 100% relative humidity for 24 h prior to addition of experimental drugs.
After 24 h, two plates of each cell line are fixed in situ with TCA, to represent a measurement of the cell population for each cell line at the time of drug addition (Tz). Experimental drugs are solubilized in dimethyl sulfoxide at 400-fold the desired final maximum test concentration and stored frozen prior to use. At the time of drug addition, an aliquot of frozen concentrate is thawed and diluted to twice the desired final maximum test concentration with complete medium containing 50 μg/ml gentamicin. Additional four, 10-fold or ½ log serial dilutions are made to provide a total of five drug concentrations plus control. Aliquots of 100 μl of these different drug dilutions are added to the appropriate microtiter wells already containing 100 μl of medium, resulting in the required final drug concentrations.
Following drug addition, the plates are incubated for an additional 48 h at 37° C., 5% CO2, 95% air, and 100% relative humidity. For adherent cells, the assay is terminated by the addition of cold TCA. Cells are fixed in situ by the gentle addition of 50 μl of cold 50% (w/v) TCA (final concentration, 10% TCA) and incubated for 60 minutes at 4° C. The supernatant is discarded, and the plates are washed five times with tap water and air dried. Sulforhodamine B (SRB) solution (100 μl) at 0.4% (w/v) in 1% acetic acid is added to each well, and plates are incubated for 10 minutes at room temperature. After staining, unbound dye is removed by washing five times with 1% acetic acid and the plates are air dried. Bound stain is subsequently solubilized with 10 mM trizma base, and the absorbance is read on an automated plate reader at a wavelength of 515 nm. […]

`CC(C)C1C2=C(NCCN1C(=O)C1CCCC1)C(C)(C)N(Cc1ccccc1)C2=O` (stereo not shown) [Compound 8c] and `CC1(C)C2=C(C(=O)N1Cc1ccccc1)C(c1ccco1)N(C(=O)C1CCC1)CCN2` (stereo not shown) [Compound 8m, 7-benzyl-4-(cyclobutanecarbonyl)-5-(furan-2-yl)-8,8-dimethyl-2,3,4,5,7,8-hexahydropyrrolo[3,4-e][1,4]diazepin-6(1H)-one] are the same in “reduction of cell growth of A549 non-small cell lung cancer cells” value: 24% for the first, 24% for the second.

With `CC(C)C1C2=C(NCCN1C(=O)c1cccnc1)C(C)(C)N(Cc1ccccc1)C2=O` (stereo not shown) [Compound 8f] the “reduction of cell growth of A549 non-small cell lung cancer cells” value was 32%.

`CC(C)C1C2=C(NCCN1C(=O)c1ccncc1)C(C)(C)N(Cc1ccccc1)C2=O` (stereo not shown) [Compound 8e] was tested, and the “reduction of cell growth of A549 non-small cell lung cancer cells” value was < 5%.
